In publication PMC6804080, “Benzoxaboroles—Novel Autotaxin Inhibitors” (Molecules, 2019):
Converted amounts (≈) assume the structure as drawn. Where two headings read alike, the source gives them in different places.

Assays:
[1] = tested on: LPA plasma levels; conditions: cited from earlier work
[2] = tested on: ATX; set-up: method as in PMID 23688339; conditions: read-out: IC50 (inhibitory properties); cited from earlier work
[3] = metabolic stability in rat liver microsomes; assay type: in vitro ADME
Procedure: (§1) Metabolic stability was assessed in rat and human liver microsomes, with testosterone and propranolol as positive controls. All compounds, at a final concentration of 1 μM (0.03% DMSO), were incubated in a phosphate buffer (50 mM, pH 7.4) for 60 min at 37 °C, together with liver microsomes in the absence and presence of NADPH generating system (nicotinamide adenine dinucleotide phosphate (NADP, 2 mM), glucose-6-phosphate (20 mM), glucose-6-phosphate dehydrogenase (6U) and magnesium chloride (2 mM)). Aliquots were taken at different time points (0, 10, 20, 30, 45 and 60 min), followed by reaction termination by addition of CH3CN:CH3OH 2:1 v/v, containing diclofenac as internal standard (IS). Samples were then centrifuged (at 2000 rpm at 4 °C for 30 min), and resulting supernatants were subjected to LC/MS/MS analysis. The in vitro half-life was calculated in GraphPadPrism software from % remaining vs. time regression using non-linear regression fit. In vitro intrinsic clearance, expressed as mL/min/g liver, was determined from in vitro half-life and normalized for the protein concentration in the incubation mixture, assuming a 52.5 mg/g liver.

[4] = plasma protein binding, equilibrium dialysis, human plasma; assay type: in vitro ADME; conditions: pH 7.4, read-out: PPB: fraction bound, human (converted)
Procedure: (§2) Plasma protein binding was measured using the equilibrium dialysis technique. Positive controls included in this assay were: Acebutolol (low binding) and nicardipine (very high binding). The assay was performed in a 96-well Teflon dialysis unit, where each well consisted of two chambers separated by a dialysis membrane. Plasma (human and rat, commercially obtained from Seralab) spiked with each compound (final concentration: 5 µM, 0.5% DMSO) were added to one chamber, and a blank buffer solution (60 mM Na2HPO4/14 mM KH2PO4/70 mM NaCl; pH 7.4) was added to the other side of the well. Each compound was analyzed in duplicate, for 4 h at 37 °C. After 4 h, both the plasma (free and bound fraction) and buffer (only free fraction) side of the well were sampled, matrix matched, then precipitated with a STOP solution (CH3CN:CH3OH 2:1 v/v, containing diclofenac as internal standard), and centrifuged at 2000 rpm for 30 min (+4 °C). The resulting supernatants were analyzed by LC-MS/MS. The fraction bound was calculated as the concentration difference (analyte vs. internal standard peak area ratio) in the plasma and buffer sides divided by the total concentration in the plasma side. Sampling was also performed from spiked plasma at t = 0 min in order to determine recovery, i.e., % of compound detected at t = 4 h in both the plasma and buffer chambers divided by the compound detected at t = 0 min.

[5] = metabolic stability in human liver microsomes; assay type: in vitro ADME
Procedure: as §1

[6] = cited from earlier work
[7] = plasma protein binding, equilibrium dialysis, rat plasma; assay type: in vitro ADME; conditions: pH 7.4, rat plasma
Procedure: as §2

[8] = in vitro plasma stability, human plasma; assay type: in vitro ADME; conditions: after 4 h
Procedure: (§3) The in vitro plasma stability of the test compounds was studied in human and rat plasma with propranolol, benflorex, and eucatropine as control substances. All compounds at final concentrations of 5 μM (0.5% DMSO) were incubated in a phosphate buffer (50 mM, pH 7.4) for 4 h at 37 °C together with plasma. Aliquots were taken at different time points (0, 30, 120 min and 4 h), followed by reaction termination by the addition of CH3CN:CH3OH 2:1 v/v., which contained diclofenac and warfarin as internal standards (IS). Samples were then centrifuged (at 1600 rpm at 4 °C for 30 min), and the resulting supernatants were subjected to LC/MS/MS analysis. Results are expressed as % remaining.

[9] = in vitro plasma stability, rat plasma; assay type: in vitro ADME; conditions: after 4 h
Procedure: as §3

[10] = set-up: method as in PMID 23688339; conditions: cited from earlier work
[11] = kinetic solubility, turbidimetric method; assay type: physicochemical; conditions: 37 °C, pH 7.4, aqueous buffer, kinetic from dmso stock, Solubility (kinetic solubility range)
Procedure: Turbidimetric solubility allows for a rapid determination of kinetic solubility by using small amounts of the test compound. Assay controls were α-naphtoflavone (low solubility) and sulfaphenazole (expected solubility >100µM). DMSO stock solutions (10 mM) of each compound were first serially diluted 1 in 3 in DMSO and then spiked into an aqueous buffer (100 mM PBS), resulting in 5 following final concentration: 100, 30, 10, 3 and 1 µM (each concentration was tested in duplicate). […] Compound samples were compared to a solvent control in an aqueous buffer (DMSO 1% final concentration), and a significant increase of sample absorbance was considered to have occurred when the absorbance reached a 3-fold standard deviation of the average DMSO absorbance. The calculation of solubility range data was made by Excel tool software. Results are expressed as an estimated solubility range.

[12] = biological target: T1, Autotaxin (ATX) (Homo sapiens, UniProt Q13822); assay: biochemical choline detection assay for ATX inhibition, LysoPC substrate; conditions: choline release assay using as a substrate; mean standard deviation from duplicate experiments
T1 construct: we added 10 μL of recombinant ATX (2 ng/mL) in a Tris–HCl buffer
Procedure: All 21 new benzoxaboroles derivatives prepared herein were evaluated for ATX inhibition in vitro using a biochemical choline detection assay, combining elements of assays already described in the literature.
[…] Mother plates with serial dilutions of compounds in pure DMSO were prepared from 10 mM DMSO stock solutions. Storplate-384-deep-well-V plates (Perkin Elmer) were also used for mother plate preparation. Compounds were diluted in a DMSO in a ratio of 1:3. An aliquot of 200 nL of compound solution was transferred from the mother plate to the test plate with a Mosquito nanoliter liquid handling system (TTP labtech). The assay was performed in Spectra-Plate-384 TC, transparent, (Perkin Elmer, Cat#6007658) using a 20 µL assay volume. The total final percentage of DMSO in the test media was 1%. Compounds were tested at 11 consecutive three-fold dilutions starting from 50 µM (final concentrations) in duplicate, covering range of 0.0008–50 μM to determine IC50 values. […] After dispensing of compounds directly to the dry plate, we added 10 μL of recombinant ATX (2 ng/mL) in a Tris–HCl buffer (140 mM NaCl, 1mM MgCl2, 5 mM KCl, 3 mM CaCl2, 1 mg/ml bovin serum albumin (BSA, fatty acid free) and 100 mM Tris–HCl, pH 9). […] The above-described solution with dimethyl sulfoxide but without the test compound was used as a control. LysoPC without ATX was used as a control for the autohydrolysis of LysoPC. After 1.5 h of incubation, 20 μL of stop solution and developer was added {Choline oxidase (1.2 U/mL), Peroxidase (1.2 U/mL), TOOS (2.7 mM), 4-Aminoantipyrine (2.7 mM), and EDTA (50 mM)} to the reaction mixture, and absorbance was measured after 30 min of incubation. The absorbance was measured by using Perkin-Elmer EnVision plate reader (λ = 555 nm). Data were analyzed using GraphPad Prism software. The calculation of IC50 data, curves and quality control (QC) analysis was made by using Excel tools and GraphPadPrism software. Briefly, individual concentration–effect curves were generated by plotting the logarithm of the tested concentration of tested compounds (X) vs. corresponding percentage inhibition values (Y) using a least squares (ordinary) fit. […] QC criteria parameters (Z,’ S:B, ΔmP) were checked for every plate.

[13] = Chrom logD determination by gradient HPLC (CHI); assay type: physicochemical; conditions: reversed-phase HPLC, Phenomenex Luna C18 column; pH 7.4, Luna C18 column
Procedure: clogP values were calculated for all compounds using the Percepta software. Chrom logD was determined experimentally using a procedure described in the supplementary data. Furthermore, the correlation between calculated clogP values and experimentally determined Chrom log D values were explored for molecules containing boron functional groups such as boronic acids and benzoxaboroles.
Chrom logD values were determined from the following equation: Chrom logD = 0.0857 × CHI − 2 [39]. Chromatographic hydrophobic index (CHI) values were determined from the gradient retention times (RT). These values approximately corresponded to the volume percentage of organic component in the mobile phase when the compound elutes. CHI values were determined at pH 7.4. Chromatograms were obtained using on Agilent 1100 Series liquid chromatography system with an HPLC diode-array detector (DAD) coupled with a Micromass Quattro micro atmosphere pressure ionization (API) mass spectrometer. The column used for analyses was Phenomenex Luna C18 (50 × 3 mm, 5 µm, 100 Å). The column was maintained at 25 °C. The flow rate was 1.0 mL/min. The mobile phase was composed of 50 mM ammonium acetate in water at pH 7.4 (solvent A) and acetonitrile (solvent B). The solvent gradient condition was initially 0.5% B, and then it increased linearly to 100% B over 3.0 min, remaining at 100% B for 0.5 min, then decreasing linearly to 0% B over 0.2 min followed by an equilibration period of 1.3 min prior to the next injection. The total experimental duration was 5 min. Injection volume was 2.0 µl. Samples temperature was maintained at 15 °C in the autosampler chamber. A group of ten standard compounds having different CHI values was used for calibration of RP-HPLC [40].

[14] = tested on: glioma tumor; set-up: method as in PMID 30462853; conditions: in vivo; cited from earlier work
[15] = tested on: glioblastoma cell lines; set-up: method as in PMID 30462853; conditions: cited from earlier work
[16] = tested on: ATX; conditions: read-out: reported activity in in vitro LPC choline release assay; cited from earlier work
[17] = tested on: A2058 human melanoma cells; conditions: dose-dependent manner; cited from earlier work
[18] = read-out: PPB: fraction bound, rat (converted)
[19] = mice, intravenous administration 1 nmol/g

SMILES | LMS: predicted in vivo hepatic clearance, rat [3] | fraction unbound at 4 h, 5 µM [4] | LMS: predicted in vivo hepatic clearance, human [5] | half-life in vivo [6] | fraction unbound at 4 h, 5 µM [7, 18] | LPA in the in vivo study [1] | PS (plasma stability), human [8] | PS (plasma stability), rat [9] | also measured
O=C1N=C(N2CCN(Cc3cccc(B(O)O)c3)CC2)SC1=Cc1ccc(Cl)c(Cl)c1 [Compound 3BoA] | – | – | – | – | – | – | – | – | LPA plasma levels ([1]; mice, 4 mg/kg i.v. injection): significantly decreases LPA plasma levels (almost to zero); plasma LPA levels ([1]; mice, 4 mg/kg intravenous administration): decreases rapidly plasma LPA levels; IC50 [2]: 13 nM
O=C1S/C(=C\c2ccc(OCc3ccc(B(O)O)cc3)cc2)C(=O)N1Cc1ccc(F)cc1 [HA155, reference compound] | < 30 %LBF | < 0.001 | 54 %LBF | less than five | 0.001 | lowering LPA significantly | 42.9 %remaining | 65.7 %remaining | fraction unbound at 4 h, 5 µM ([7]; read-out: fraction unbound, rat plasma): 0.004; Solubility, value taken from literature [10]: 6.8 µM (≈ 3.15 µg/mL)
Cc1cc(C)cc(COC(=O)N2CCN(C3CN(C(=O)c4ccc5c(c4)B(O)OC5)C3)CC2)c1 [Compound 45, (3,5-dimethylphenyl)methyl 4-[1-(1-hydroxy-3H-2,1-benzoxaborole-6-carbonyl)azetidin-3-yl]piperazine-1-carboxylate] | 61 %LBF | 0.041 | 84 %LBF | – | 0.056 | – | 72.8 %remaining | 68.6 %remaining | solubility kinetic at 1 h [11]: > 100 µM; IC50 [12]: 1000 ± 1150 nM; chromatographic logD [13]: 4.17
O=C(CCN1CCN(C(=O)OCc2cc(Cl)cc(Cl)c2)CC1)c1ccc2[nH]c(=O)oc2c1 [PF-8380] | – | – | – | – | – | – | – | – | glioma tumor growth progression [14]: delaying simultaneously glioma tumor growth progression; anti-invasive effect [15]: significant anti-invasive effect
O=C1S/C(=C\c2ccc(OCc3cccc(B(O)O)c3)cc2)C(=O)N1Cc1ccc(F)cc1 [HA130] | – | – | – | less than five | – | lowering LPA significantly | – | – | IC50 [16]: 28 nM; LPA levels in the plasma [1, 19]: rapid decrease of LPA levels; toxicity [1, 19]: no overt toxicity issues observed; ATX-mediated migration of A2058 human melanoma cells [17]: inhibited
